In patent publication US9113629B2, “4-amino-6-(4-substituted-phenyl)-picolinates and 6-amino-2-(4-substituted-phenyl)-pyrimidine-4-carboxylates and their use as herbicides” (DOW AGROSCIENCES LLC, priority 2013, dated 2015):
Read-outs that look alike come from different tables or passages of the source.

Tests used:
[1] = system: Key Broadleaf Weed and Crop Species; test: Post-emergent Test II herbicidal activity (Table 5); type: in vivo; conditions: post-emergence, 336 h, 14 days after application; for pest or weed control at 70 g/ha: application rate 70 g ai/ha; for pest or weed control at 140 g/ha: application rate 140 g ai/ha
How it was run: (§1)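 Percent injury, 0 (none) to 100 (complete kill), was judged visually 14 d after spraying young plants at the first or second true leaf stage with compound in an acetone/DMSO aqueous carrier at 187 L/ha. Plants were kept in a greenhouse at 23–29 °C by day.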

[2] = system: Key Grass and Sedge Weeds as well as Grass Crops; test: Post-emergent Test II herbicidal activity (Table 6); type: in vivo; conditions: post-emergence, 336 h; for pest or weed control at 70 g/ha: 70 g ai/ha; for pest or weed control at 140 g/ha: 140 g ai/ha
How it was run: as §1

[3] = ABUTH: velvetleaf (Abutilon theophrasti), read-out: Visual Growth Reduction (%) 14 Days After Application, ABUTH
[4] = AMARE: redroot pigweed (Amaranthus retroflexus), read-out: Visual Growth Reduction (%) 14 Days After Application, AMARE
[5] = BRSNN: oilseed-rape, canola (Brassica napus), read-out: Visual Growth Reduction (%) 14 Days After Application, BRSNN
[6] = CHEAL: lambsquarters (Chenopodium album), read-out: Visual Growth Reduction (%) 14 Days After Application, CHEAL
[7] = EPHHL: wild poinsettia (Euphorbia heterophylla), read-out: Visual Growth Reduction (%) 14 Days After Application, EPHHL
[8] = HELAN: sunflower (Helianthus annuus), read-out: Visual Growth Reduction (%) 14 Days After Application, HELAN
[9] = VIOTR: wild pansy (Viola tricolor), read-out: Visual Growth Reduction (%) 14 Days After Application, VIOTR
[10] = CYPES: yellow nutsedge (Cyperus esculentus), read-out: Visual Growth Reduction (%) 14 Days After Application, CYPES
[11] = DIGSA: crabgrass (Digitaria sanguinalis), read-out: Visual Growth Reduction (%) 14 Days After Application, DIGSA
[12] = ECHCG: barnyardgrass (Echinochloa crus-galli), read-out: Visual Growth Reduction (%) 14 Days After Application, ECHCG
[13] = ORYSA: rice (Oryza sativa), crop, read-out: Visual Growth Reduction (%) 14 Days After Application, ORYSA
[14] = SETFA: giant foxtail (Setaria faberi), read-out: Visual Growth Reduction (%) 14 Days After Application, SETFA
[15] = SORVU: grain sorghum (Sorghum vulgare), read-out: Visual Growth Reduction (%) 14 Days After Application, SORVU
[16] = TRZSS (wheat, Triticum aestivum), crop, read-out: Visual Growth Reduction (%) 14 Days After Application, TRZSS
[17] = ZEAMX: maize, corn (Zea mays), crop, read-out: Visual Growth Reduction (%) 14 Days After Application, ZEAMX

COC(=O)c1nc(-c2ccc(Br)c(F)c2F)cc(N)c1Cl [Compound 114, methyl 4-amino-6-(4-bromo-2,3-difluorophenyl)-3-chloropicolinate]
pest or weed control at 70 g/ha [1, 3]: 95 to 100%
pest or weed control at 140 g/ha [1, 3]: 95 to 100%
pest or weed control at 70 g/ha [1, 4]: 95 to 100%
pest or weed control at 140 g/ha [1, 4]: 95 to 100%
pest or weed control at 70 g/ha [1, 5]: 85 to 94%
pest or weed control at 140 g/ha [1, 5]: 95 to 100%
pest or weed control at 70 g/ha [1, 6]: 95 to 100%
pest or weed control at 140 g/ha [1, 6]: 95 to 100%
pest or weed control at 70 g/ha [1, 7]: 95 to 100%
pest or weed control at 140 g/ha [1, 7]: 95 to 100%
pest or weed control at 70 g/ha [1, 8]: 95 to 100%
pest or weed control at 140 g/ha [1, 8]: 95 to 100%
pest or weed control at 70 g/ha [1, 9]: 95 to 100%
pest or weed control at 140 g/ha [1, 9]: 95 to 100%
pest or weed control at 70 g/ha [2, 10]: 95 to 100%
pest or weed control at 140 g/ha [2, 10]: 95 to 100%
pest or weed control at 70 g/ha [2, 11]: 60 to 74%
pest or weed control at 140 g/ha [2, 11]: 60 to 74%
pest or weed control at 70 g/ha [2, 12]: 95 to 100%
pest or weed control at 140 g/ha [2, 12]: 95 to 100%
pest or weed control at 70 g/ha [2, 13]: 0 to 29%
pest or weed control at 140 g/ha [2, 13]: 0 to 29%
pest or weed control at 70 g/ha [2, 14]: 60 to 74%
pest or weed control at 140 g/ha [2, 14]: 75 to 84%
pest or weed control at 70 g/ha [2, 15]: 95 to 100%
pest or weed control at 140 g/ha [2, 15]: 95 to 100%
pest or weed control at 70 g/ha [2, 16]: 30 to 44%
pest or weed control at 140 g/ha [2, 16]: 45 to 59%
pest or weed control at 70 g/ha [2, 17]: 85 to 94%
pest or weed control at 140 g/ha [2, 17]: 85 to 94%
